According to ChEMBL document CHEMBL5523764, “Discovery of NO Donor-Aurovertin Hybrids as Dual Ferroptosis and Apoptosis Inducers for Treating Triple Negative Breast Cancer” (J Med Chem, 2024):
pIC50: −log10 of the molar value. Active and inactive are the calls of the source. No cut-off for these calls is given here.

Columns and labels:
MDA-MB-231 [1] = assay: Antiproliferative activity against human MDA-MB-231 cells assessed as reduction in cell viability incubated for 72 hrs by MTT assay; format: functional, cell-based; conditions: MDA-MB-231, 72 h
4T1 = assay: Antiproliferative activity against mouse 4T1 cells assessed as reduction in cell viability incubated for 72 hrs by MTT assay; format: functional, cell-based; conditions: 4T1, 72 h
[2] = Cytotoxicity against human MCF-10A cells assessed as reduction in cell viability incubated for 72 hrs by MTT assay; format: toxicity, cell-based
[3] = Selectivity index, ratio of IC50 for cytotoxicity against human MCF-10A cells to IC50 for antiproliferative activity against human MDA-MB-231 cells; format: toxicity, cell-based; conditions: MCF-10A cells versus MDA-MB-231 cells, read-out: Ratio IC50
MDA-MB-231 [4] = assay: Induction of NO release in human MDA-MB-231 cells assessed NO concentration by Griess reagent based assay; format: functional
MDA-MB-231 [5] = assay: Antitumor activity against human MDA-MB-231 cells xenografted in nude mouse assessed as reduction in tumor size at 5 mg/kg, ip administered for 30 days; format: functional, organism-based; conditions: time 30.0 day
MDA-MB-231 [6] = assay: Antitumor activity against human MDA-MB-231 cells xenografted in nude mouse assessed as reduction in tumor weight at 5 mg/kg, ip administered for 30 days; format: functional, organism-based; conditions: time 30.0 day
MDA-MB-231 [7] = assay: Induction of ferroptosis in human MDA-MB-231 cells xenografted in nude mouse assessed as reduction in GPX4 level at 5 mg/kg, ip administered for 30 days by immunohistochemistry analysis; format: functional, organism-based; conditions: time 30.0 day

Structure (SMILES)	pIC50 (MDA-MB-231 [1])	pIC50 (4T1)	IC50 at 72 h [2] [µM]	selectivity ratio [3]	Activity (MDA-MB-231 [4]) [µM]	Activity (MDA-MB-231 [5])	Activity (MDA-MB-231 [6])	Activity (MDA-MB-231 [7])
CC[C@H]1O[C@@]2(C)[C@H](OC(C)=O)[C@@]1(C)O[C@@H](/C=C/C=C/C=C/c1oc(=O)cc(OC)c1C)[C@@H]2OC(=O)CCCC(=O)OCc1c(-c2ccc(Br)cc2)no[n+]1[O-]	5.32	5.34	> 50	> 10	2.65	–	–	–
CC[C@H]1O[C@@]2(C)[C@H](OC(C)=O)[C@@]1(C)O[C@@H](/C=C/C=C/C=C/c1oc(=O)cc(OC)c1C)[C@@H]2OC(=O)CCCC(=O)OCc1c(-c2ccc(C)cc2)no[n+]1[O-]	5.24	5.15	> 50	> 8	–	–	–	–
CC[C@H]1O[C@@]2(C)[C@H](OC(C)=O)[C@@]1(C)O[C@@H](/C=C/C=C/C=C/c1oc(=O)cc(OC)c1C)[C@@H]2OC(=O)CCCC(=O)OCc1c(CSC[C@@H](NC(C)=O)C(=O)O)no[n+]1[O-]	< 5.00	–	–	–	1.71	–	–	–
COc1cccc2c1C(=O)c1c(O)c3c(c(O)c1C2=O)C[C@@](O)(C(=O)CO)C[C@@H]3O[C@H]1C[C@H](N)[C@@H](O)[C@H](C)O1	–	–	–	–	–	Active	Active	inactive
CC[C@H]1O[C@@]2(C)[C@H](OC(C)=O)[C@@]1(C)O[C@@H](/C=C/C=C/C=C/c1oc(=O)cc(OC)c1C)[C@@H]2OC(=O)CCCC(=O)OCc1c(-c2ccc(Cl)cc2)no[n+]1[O-]	5.34	5.10	> 50	> 10	2.42	–	–	–
CC[C@H]1O[C@@]2(C)[C@H](OC(C)=O)[C@@]1(C)O[C@@H](/C=C/C=C/C=C/c1oc(=O)cc(OC)c1C)[C@@H]2OC(=O)CCC(=O)ONC(=O)COCCOc1no[n+]([O-])c1S(=O)(=O)c1ccccc1	5.82	5.47	> 50	> 33	–	–	–	–
CC[C@H]1O[C@]2(C)C(OC(=O)CCC(=O)OCc3cccc(Oc4no[n+]([O-])c4S(=O)(=O)c4ccccc4)c3)[C@H](/C=C/C=C/C=C/c3oc(=O)cc(OC)c3C)O[C@]1(C)[C@H]2OC(C)=O (single isomer, unassigned)	< 5.00	–	–	–	2.15	–	–	–
CC[C@H]1O[C@@]2(C)[C@H](OC(C)=O)[C@@]1(C)O[C@@H](/C=C/C=C/C=C/c1oc(=O)cc(OC)c1C)[C@@H]2OC(=O)CCCC(=O)OCc1c(-c2ccc(OC)cc2)no[n+]1[O-]	5.41	5.17	> 50	> 13	–	–	–	–
CC[C@H]1O[C@@]2(C)[C@H](OC(C)=O)[C@@]1(C)O[C@@H](/C=C/C=C/C=C/c1oc(=O)cc(OC)c1C)[C@@H]2OC(=O)CCCC(=O)OCc1c(-c2ccc(C(F)(F)F)cc2)no[n+]1[O-]	5.34	5.08	> 50	> 10	–	–	–	–
CC[C@H]1O[C@]2(C)C(OC(=O)CCCC(=O)OCc3c(CSCCC(=O)O)no[n+]3[O-])[C@H](/C=C/C=C/C=C/c3oc(=O)cc(OC)c3C)O[C@]1(C)[C@H]2OC(C)=O (single isomer, unassigned)	< 5.00	–	–	–	1.89	–	–	–
CC[C@H]1O[C@]2(C)C(OC(=O)CCC(=O)OCc3ccc(Oc4no[n+]([O-])c4S(=O)(=O)c4ccccc4)cc3)[C@H](/C=C/C=C/C=C/c3oc(=O)cc(OC)c3C)O[C@]1(C)[C@H]2OC(C)=O (single isomer, unassigned)	5.23	< 5.00	–	–	2.44	–	–	–
CC[C@H]1O[C@@]2(C)[C@H](OC(C)=O)[C@@]1(C)O[C@@H](/C=C/C=C/C=C/c1oc(=O)cc(OC)c1C)[C@@H]2OC(=O)CCCC(=O)OCc1c(-c2ccc(F)cc2)no[n+]1[O-]	5.14	< 5.00	> 50	> 7	2.27	–	–	–
CC[C@H]1O[C@@]2(C)[C@H](OC(C)=O)[C@@]1(C)O[C@@H](/C=C/C=C/C=C/c1oc(=O)cc(OC)c1C)[C@@H]2OC(=O)CCCC(=O)OCc1c(-c2ccccc2)no[n+]1[O-]	5.00	–	–	–	1.93	–	–	–
CC[C@H]1O[C@@]2(C)[C@H](OC(C)=O)[C@@]1(C)O[C@@H](/C=C/C=C/C=C/c1oc(=O)cc(OC)c1C)[C@@H]2OC(=O)CCCC(=O)OCc1c(CSCC(=O)O)no[n+]1[O-]	< 5.00	–	–	–	1.76	–	–	–
O=S(=O)(c1ccccc1)c1no[n+]([O-])c1S(=O)(=O)c1ccccc1	5.96	5.67	3.8	3.1	8.06	–	–	–
CC[C@H]1O[C@@]2(C)[C@H](OC(C)=O)[C@@]1(C)O[C@@H](/C=C/C=C/C=C/c1oc(=O)cc(OC)c1C)[C@H]2OC(=O)CCC(=O)OCCc1ccc(Oc2no[n+]([O-])c2S(=O)(=O)c2ccccc2)cc1	5.48	5.25	> 50	> 15	–	–	–	–
N=C(N)NCCC[C@H](N)C(=O)O [ARGININE]	–	–	–	–	1.31	–	–	–
CC[C@H]1O[C@]2(C)C(OC(=O)CCCC(=O)OCc3c(CSCCCO)no[n+]3[O-])[C@H](/C=C/C=C/C=C/c3oc(=O)cc(OC)c3C)O[C@]1(C)[C@H]2OC(C)=O (single isomer, unassigned)	< 5.00	–	–	–	2.02	–	–	–
CC(=O)O[C@H]1C(=O)[C@@]2(C)[C@H]([C@H](OC(=O)c3ccccc3)[C@]3(O)C[C@H](OC(=O)[C@H](O)[C@@H](NC(=O)c4ccccc4)c4ccccc4)C(C)=C1C3(C)C)[C@]1(OC(C)=O)CO[C@@H]1C[C@@H]2O [PACLITAXEL]	5.34	5.42	7.82	1.7	–	–	–	–

Second part, led by results:

pIC50 (MDA-MB-231 [1])	pIC50 (4T1)	Structure (SMILES)	IC50 at 72 h [2] [µM]	selectivity ratio [3]	Activity (MDA-MB-231 [4]) [µM]	Activity (MDA-MB-231 [5])	Activity (MDA-MB-231 [6])	Activity (MDA-MB-231 [7])
6.15	5.91	CC[C@H]1O[C@@]2(C)[C@H](OC(C)=O)[C@@]1(C)O[C@@H](/C=C/C=C/C=C/c1oc(=O)cc(OC)c1C)[C@@H]2OC(=O)CCCCCCCOc1no[n+]([O-])c1S(=O)(=O)c1ccccc1	> 50	> 71	–	–	–	–
6.35	6.14	CC[C@H]1O[C@@]2(C)[C@H](OC(C)=O)[C@@]1(C)O[C@@H](/C=C/C=C/C=C/c1oc(=O)cc(OC)c1C)[C@H]2OC(=O)CCC(=O)OCCCCCCOc1no[n+]([O-])c1S(=O)(=O)c1ccccc1	> 50	> 111	4.92	–	–	–
5.91	5.57	CC[C@H]1O[C@@]2(C)[C@H](OC(C)=O)[C@@]1(C)O[C@@H](/C=C/C=C/C=C/c1oc(=O)cc(OC)c1C)[C@@H]2OC(=O)CCC(=O)ONC(=O)CCCCOc1no[n+]([O-])c1S(=O)(=O)c1ccccc1	> 50	> 40	–	–	–	–
6.16	5.81	CC[C@H]1O[C@@]2(C)[C@H](OC(C)=O)[C@@]1(C)O[C@@H](/C=C/C=C/C=C/c1oc(=O)cc(OC)c1C)[C@@H]2OC(=O)CCC(=O)ONC(=O)CCCOc1no[n+]([O-])c1S(=O)(=O)c1ccccc1	> 50	> 72	–	–	–	–
6.38	6.26	CC[C@H]1O[C@@]2(C)[C@H](OC(C)=O)[C@@]1(C)O[C@@H](/C=C/C=C/C=C/c1oc(=O)cc(OC)c1C)[C@H]2OC(=O)CCC(=O)OCCCCOc1no[n+]([O-])c1S(=O)(=O)c1ccccc1	> 50	> 119	5.23	–	–	–
6.22	5.95	CC[C@H]1O[C@@]2(C)[C@H](OC(C)=O)[C@@]1(C)O[C@@H](/C=C/C=C/C=C/c1oc(=O)cc(OC)c1C)[C@H]2OC(=O)CCC(=O)OCCCCCOc1no[n+]([O-])c1S(=O)(=O)c1ccccc1	> 50	> 83	4.6	–	–	–
5.76	5.57	CC[C@H]1O[C@@]2(C)[C@H](OC(C)=O)[C@@]1(C)O[C@@H](/C=C/C=C/C=C/c1oc(=O)cc(OC)c1C)[C@@H]2OC(=O)CCC(=O)OCCOCCOc1no[n+]([O-])c1S(=O)(=O)c1ccccc1	> 50	> 28	–	–	–	–
5.91	5.68	CC[C@H]1O[C@@]2(C)[C@H](OC(C)=O)[C@@]1(C)O[C@@H](/C=C/C=C/C=C/c1oc(=O)cc(OC)c1C)[C@@H]2OC(=O)CCC(=O)OCC#CCOc1no[n+]([O-])c1S(=O)(=O)c1ccccc1	> 50	> 40	–	–	–	–
5.98	5.72	CC[C@H]1O[C@@]2(C)[C@H](OC(C)=O)[C@@]1(C)O[C@@H](/C=C/C=C/C=C/c1oc(=O)cc(OC)c1C)[C@@H]2OC(=O)CCC(=O)ONC(=O)CCCCCOc1no[n+]([O-])c1S(=O)(=O)c1ccccc1	> 50	> 48	–	–	–	–
6.30	6.11	CC[C@H]1O[C@@]2(C)[C@H](OC(C)=O)[C@@]1(C)O[C@@H](/C=C/C=C/C=C/c1oc(=O)cc(OC)c1C)[C@@H]2OC(=O)COCCOCCOc1no[n+]([O-])c1S(=O)(=O)c1ccccc1	> 50	> 100	–	–	–	–
6.00	5.67	CC[C@H]1O[C@@]2(C)[C@H](OC(C)=O)[C@@]1(C)O[C@@H](/C=C/C=C/C=C/c1oc(=O)cc(OC)c1C)[C@@H]2OC(=O)CCCCCOc1no[n+]([O-])c1S(=O)(=O)c1ccccc1	> 50	> 50	–	–	–	–
< 5.00	–	CC[C@H]1O[C@@]2(C)[C@H](OC(C)=O)[C@@]1(C)O[C@@H](/C=C/C=C/C=C/c1oc(=O)cc(OC)c1C)[C@@H]2OC(=O)CCCCCCCCCCCCCOc1no[n+]([O-])c1S(=O)(=O)c1ccccc1	–	–	–	–	–	–
